Test results from patent US7101881B2, “Tetrahydroquinolines” (Pfizer Inc, priority 2003, dated 2006).
Where a name gives a salt, the structure may show the parent alone.

| Compound | melting point |
| --- | --- |
| CN1CCN(c2cccc3c2CN(C(=O)CCc2ccc(Cl)cc2)CC3)CC1 (as salt: salt) [Example 2, 3-(4-Chloro-phenyl)-1-[8-(4-methyl-piperazin-1-yl)-3,4-dihydro-1H-isoquinolin-2-yl]-propan-1-one] | 84 °C |
| CN1CCN(c2cccc3c2CN(C(=O)c2ccc(Cl)cc2)CC3)CC1 (as salt: salt) [Example 10, (4-Chloro-phenyl)-[8-(4-methyl-piperazin-1-yl)-3,4-dihydro-1H-isoquinolin-2-yl]-methanone] | 52 °C |
| CN1CCN(c2cccc3c2CN(C(=O)Cc2cccnc2)CC3)CC1 (as salt: salt) [Example 9, 1-[8-(4-Methyl-piperazin-1-yl)-3,4-dihydro-1H-isoquinolin-2-yl]-2-pyridin-3-yl-ethanone] | 56 °C |
| COc1ccc(CC(=O)N2CCc3cccc(N4CCN(C)CC4)c3C2)cc1 (as salt: salt) [Example 3, 2-(4-Methoxy-phenyl)-1-[8-(4-methyl-piperazin-1-yl)-3,4-dihydro-1H-isoquinolin-2-yl]-ethanone] | 63 °C |
| CN1CCN(c2cccc3c2CN(C(=O)CC2CC2)CC3)CC1 (as salt: salt) | 66 °C |

Other lines, results leading:

| melting point | Compound |
| --- | --- |
| 66 °C | CN1CCN(c2cccc3c2CN(C(=O)Cc2ccc(Cl)c(Cl)c2)CC3)CC1 [Example 12, 2-(3,4-Dichloro-phenyl)-1-[8-(4-methyl-piperazin-1-yl)-3,4-dihydro-1H-isoquinolin-2-yl]-ethanone] |
| 129 °C (dec.) | CN1CCN(c2cccc3c2CN(C(=O)c2ccc(N4CCOCC4)cc2)CC3)CC1 [Example 11, [8-(4-Methyl-piperazin-1-yl)-3,4-dihydro-1H-isoquinolin-2-yl]-(4-morpholin-4-yl-phenyl)-methanone] |
| 85 °C | CN1CCN(c2cccc3c2CN(C(=O)Cc2ccc(Cl)cc2Cl)CC3)CC1 (as salt: salt) [Example 6, 2-(2,4-Dichloro-phenyl)-1-[8-(4-methyl-piperazin-1-yl)-3,4-dihydro-1H-isoquinolin-2-yl]-ethanone] |
| 54 °C | CN1CCN(c2cccc3c2CN(C(=O)Cc2ccccc2Cl)CC3)CC1 (as salt: salt) [Example 7, 2-(2-Chloro-phenyl)-1-[8-(4-methyl-piperazin-1-yl)-3,4-dihydro-1H-isoquinolin-2-yl]-ethanone] |
